Literature values in patent US9370492B2, “Solid pharmaceutical dosage forms comprising bisphosphonates and modified amino acid carriers” (EMISPHERE TECHNOLOGIES, INC., priority 2005, dated 2016).
Where a name gives a salt, the structure may show the parent alone.

CCCCCN(C)CCC(O)(P(=O)(O)O)P(=O)(O)O [Ibandronate sodium, 3-(N-methyl-N-pentyl)amino-1-hydroxypropane-1,1-diphosphonic acid, monosodium salt, monohydrate]
solubility in organic solvents (organic solvents): practically insoluble
solubility in water (water): freely soluble
